Experimental data reported in PubChem BioAssay (NCI).
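These data come from cells grown in 96-well plates and exposed to compound for 48 hours at five concentrations. Here, GI50 denotes the concentration required for 50% inhibition of growth. Definition used: TGI = concentration required for complete inhibition of growth.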

Legend:
Assay in all cases: NCI-60 cell line screen, 48 h
SF-295 CNS = system: SF-295 CNS
COLO 205 colon = system: COLO 205 colon
T-47D breast = system: T-47D breast
MALME-3M melanoma = system: MALME-3M melanoma
LOX IMVI melanoma = system: LOX IMVI melanoma
HCT-116 colon = system: HCT-116 colon
MDA-MB-435 = system: MDA-MB-435
K-562 leukemia = system: K-562 leukemia
A549 NSCLC = system: A549 NSCLC
EKVX NSCLC = system: EKVX NSCLC
RPMI-8226 leukemia = system: RPMI-8226 leukemia
NCI-H460 lung = system: NCI-H460 lung
HCT-15 colon = system: HCT-15 colon
CCRF-CEM leukemia = system: CCRF-CEM leukemia
HCC-2998 colon = system: HCC-2998 colon
786-0 renal = system: 786-0 renal
U251 CNS = system: U251 CNS
MOLT-4 leukemia = system: MOLT-4 leukemia
SK-MEL-2 melanoma = system: SK-MEL-2 melanoma
UACC-257 melanoma = system: UACC-257 melanoma
SN12C renal = system: SN12C renal
RXF 393 renal = system: RXF 393 renal
OVCAR-5 ovarian = system: OVCAR-5 ovarian
A498 renal = system: A498 renal
HL-60(TB) leukemia = system: HL-60(TB) leukemia
SNB-19 CNS = system: SNB-19 CNS
HOP-62 NSCLC = system: HOP-62 NSCLC
HT29 colon = system: HT29 colon
SR leukemia = system: SR leukemia
DU-145 prostate = system: DU-145 prostate
TK-10 renal = system: TK-10 renal
HOP-92 NSCLC = system: HOP-92 NSCLC
IGROV1 ovarian = system: IGROV1 ovarian
HS 578T breast = system: HS 578T breast
PC-3 prostate = system: PC-3 prostate
MCF7 breast = system: MCF7 breast
ACHN renal = system: ACHN renal
SF-268 CNS = system: SF-268 CNS
SK-MEL-5 melanoma = system: SK-MEL-5 melanoma
NCI-H23 lung = system: NCI-H23 lung
SF-539 CNS = system: SF-539 CNS
NCI-H226 lung = system: NCI-H226 lung
M14 melanoma = system: M14 melanoma
SK-OV-3 ovarian = system: SK-OV-3 ovarian
SW-620 colon = system: SW-620 colon
OVCAR-8 ovarian = system: OVCAR-8 ovarian
OVCAR-3 ovarian = system: OVCAR-3 ovarian
KM12 colon = system: KM12 colon
OVCAR-4 ovarian = system: OVCAR-4 ovarian
MDA-MB-468 breast = system: MDA-MB-468 breast
CAKI-1 renal = system: CAKI-1 renal
MDA-MB-231 breast = system: MDA-MB-231 breast
UO-31 renal = system: UO-31 renal
SK-MEL-28 melanoma = system: SK-MEL-28 melanoma
BT-549 breast = system: BT-549 breast
NCI-H522 lung = system: NCI-H522 lung
UACC-62 melanoma = system: UACC-62 melanoma
SNB-75 CNS = system: SNB-75 CNS

SMILES: COc1cccc2nc(Nc3ccc(F)c(NC(=O)c4ccc(CN5CCN(C)CC5)c(C(F)(F)F)c4)c3)ccc12
- GI50 (SF-295 CNS): 17.1 µM
- TGI (SF-295 CNS): 32.2 µM
- GI50 (COLO 205 colon): 17.2 µM
- TGI (COLO 205 colon): 31.9 µM
- GI50 (T-47D breast): 14.8 µM
- TGI (T-47D breast): 31.4 µM
- GI50 (MALME-3M melanoma): 11.7 µM
- TGI (MALME-3M melanoma): 24.1 µM
- GI50 (LOX IMVI melanoma): 13.8 µM
- TGI (LOX IMVI melanoma): 27.3 µM
- GI50 (HCT-116 colon): 8.75 µM
- TGI (HCT-116 colon): 22.6 µM
- GI50 (MDA-MB-435): 15.1 µM
- TGI (MDA-MB-435): 28.3 µM
- GI50 (K-562 leukemia): 3.59 µM
- TGI (K-562 leukemia): 20.9 µM
- GI50 (A549 NSCLC): 12.2 µM
- TGI (A549 NSCLC): 24.6 µM
- GI50 (EKVX NSCLC): 14.7 µM
- TGI (EKVX NSCLC): 29.1 µM
- GI50 (RPMI-8226 leukemia): 9.3 µM
- TGI (RPMI-8226 leukemia): 27.1 µM
- GI50 (NCI-H460 lung): 15.9 µM
- TGI (NCI-H460 lung): 33.5 µM
- GI50 (HCT-15 colon): 13.4 µM
- TGI (HCT-15 colon): 28.4 µM
- GI50 (CCRF-CEM leukemia): 9.71 µM
- TGI (CCRF-CEM leukemia): 25.6 µM
- GI50 (HCC-2998 colon): 18.8 µM
- TGI (HCC-2998 colon): 33.2 µM
- GI50 (786-0 renal): 12.5 µM
- TGI (786-0 renal): 26.4 µM
- GI50 (U251 CNS): 13.4 µM
- TGI (U251 CNS): 26.1 µM
- GI50 (MOLT-4 leukemia): 4.1 µM
- TGI (MOLT-4 leukemia): 18.4 µM
- GI50 (SK-MEL-2 melanoma): 16.1 µM
- TGI (SK-MEL-2 melanoma): 29.9 µM
- GI50 (UACC-257 melanoma): 16.3 µM
- TGI (UACC-257 melanoma): 30.1 µM
- GI50 (SN12C renal): 13.4 µM
- TGI (SN12C renal): 27.4 µM
- GI50 (RXF 393 renal): 3.71 µM
- TGI (RXF 393 renal): 17.2 µM
- GI50 (OVCAR-5 ovarian): 16.1 µM
- TGI (OVCAR-5 ovarian): 30.4 µM
- GI50 (A498 renal): 17 µM
- TGI (A498 renal): 32.2 µM
- GI50 (HL-60(TB) leukemia): 6.52 µM
- TGI (HL-60(TB) leukemia): 25.4 µM
- GI50 (SNB-19 CNS): 17.2 µM
- TGI (SNB-19 CNS): 32.8 µM
- GI50 (HOP-62 NSCLC): 14.5 µM
- TGI (HOP-62 NSCLC): 28 µM
- GI50 (HT29 colon): 3.61 µM
- TGI (HT29 colon): 13.9 µM
- GI50 (SR leukemia): 9.84 µM
- TGI (SR leukemia): 28 µM
- GI50 (DU-145 prostate): 12.9 µM
- TGI (DU-145 prostate): 25.6 µM
- GI50 (TK-10 renal): 16.4 µM
- TGI (TK-10 renal): 30.2 µM
- GI50 (HOP-92 NSCLC): 6.64 µM
- TGI (HOP-92 NSCLC): 21.6 µM
- GI50 (IGROV1 ovarian): 14.5 µM
- TGI (IGROV1 ovarian): 29 µM
- GI50 (HS 578T breast): 14.1 µM
- TGI (HS 578T breast): 39.9 µM
- GI50 (PC-3 prostate): 12 µM
- TGI (PC-3 prostate): 28.7 µM
- GI50 (MCF7 breast): 12.3 µM
- TGI (MCF7 breast): 27.5 µM
- GI50 (ACHN renal): 16.5 µM
- TGI (ACHN renal): 34.9 µM
- GI50 (SF-268 CNS): 11.1 µM
- TGI (SF-268 CNS): 27.1 µM
- GI50 (SK-MEL-5 melanoma): 15.5 µM
- TGI (SK-MEL-5 melanoma): 28.9 µM
- GI50 (NCI-H23 lung): 15.5 µM
- TGI (NCI-H23 lung): 29.6 µM
- GI50 (SF-539 CNS): 12.4 µM
- TGI (SF-539 CNS): 25.5 µM
- GI50 (NCI-H226 lung): 11.1 µM
- TGI (NCI-H226 lung): 24.7 µM
- GI50 (M14 melanoma): 13.1 µM
- TGI (M14 melanoma): 27.5 µM
- GI50 (SK-OV-3 ovarian): 15.7 µM
- TGI (SK-OV-3 ovarian): 29.8 µM
- GI50 (SW-620 colon): 16.9 µM
- TGI (SW-620 colon): 30.9 µM
- GI50 (OVCAR-8 ovarian): 15.8 µM
- TGI (OVCAR-8 ovarian): 29.8 µM
- GI50 (OVCAR-3 ovarian): 14.4 µM
- TGI (OVCAR-3 ovarian): 28 µM
- GI50 (KM12 colon): 15.4 µM
- TGI (KM12 colon): 29.6 µM
- GI50 (OVCAR-4 ovarian): 13.9 µM
- TGI (OVCAR-4 ovarian): 28.9 µM
- GI50 (MDA-MB-468 breast): 4.79 µM
- TGI (MDA-MB-468 breast): 18.1 µM
- GI50 (CAKI-1 renal): 11.5 µM
- TGI (CAKI-1 renal): 24.2 µM
- GI50 (MDA-MB-231 breast): 12.1 µM
- TGI (MDA-MB-231 breast): 24.9 µM
- GI50 (UO-31 renal): 12.6 µM
- TGI (UO-31 renal): 25.5 µM
- GI50 (SK-MEL-28 melanoma): 15.3 µM
- TGI (SK-MEL-28 melanoma): 30.3 µM
- GI50 (BT-549 breast): 10.5 µM
- TGI (BT-549 breast): 22.6 µM
- GI50 (NCI-H522 lung): 16 µM
- TGI (NCI-H522 lung): 30.2 µM
- GI50 (UACC-62 melanoma): 16.2 µM
- TGI (UACC-62 melanoma): 30.9 µM
- GI50 (SNB-75 CNS): 9.08 µM
- TGI (SNB-75 CNS): 21.4 µM
